Experimental data reported in US20120270917A1 (The Trustees of the University of Pennsylvania, priority 2009, published 2012).
Structures can show the parent of a compound that is named as a salt.

What was measured:
AM2 (V27A) = AM2 (V27A) (Influenza A virus, UniProt P0DOF5, V27A); type: cell-based
AM2 (S31N) = AM2 (S31N) (Influenza A virus, UniProt P0DOF5, S31N); type: cell-based

SMILES | AM2 (V27A) % inhibition at μM (AM2 (V27A)) [%] | AM2 (S31N) % inhibition at μM (AM2 (S31N)) [%] | AM2 (S31N) % inhibition at 100 uM (AM2 (S31N)) | other results
Cl.NC12CC3CCC(CC(C3)C1)C2 [Compound S2, tricyclo[4.3.1.13,8]undecan-1-aminium chloride] | 13.6 | 23.7 | – | –
Cl.NC1CCC2(CC1)C1CC3CC(C1)CC2C3 (centres unmarked) [Compound S15, (1r, 3r,5r,7r)-spiro[adamantane-2,1′-cyclohexan]-4′-aminium chloride] | – | – | – | V27A % of inhibition by 100 μM for 2 min (AM2 (V27A)): 94.5 ± 0.4%
CC(NC(=N)N)C12CC3CC(CC(C3)C1)C2 (centres unmarked) [Compound 40] | – | – | 40 (0%) | –
NC1(C(F)(F)F)C2CC3CC(C2)CC1C3 (centres unmarked) [Compound S6] | 1.5 | 13.7 | – | –
CC1(N)C2CC3CC(C2)CC1C3 (centres unmarked) [Compound S5] | 7.2 | 13.8 | – | –
O=C1C2CC3CC(C2)CC1C3 [Compound S13] | 0 | 0 | – | –
Cc1nc[nH]c1/C=N/OC12CC3CC(CC(C3)C1)C2 [Compound 43, 5-Methyl-3H-imidazole-4-carbaldehyde O-adamantan-1-yl-oxime] | – | – | 43 (10%) | –
C1NC2CC3CC1CC(C3)C2.Cl [Compound 47, 4-Azatricyclo[4.3.1.1^3,8]undecan hydrochloride] | – | – | 47 (8%) | –
NS(=O)(=O)NC1C2CC3CC(C2)CC1C3 (centres unmarked) [Compound S7] | – | 3.8 | – | –
NC(=O)C12CC3CC(CC(C3)C1)C2 [Compound 48] | – | – | 48 (7.3%) | –
O=C1C2CC3CC1CC(C2)C3=O [Compound 52, 2,6-diadamantone] | – | – | 52 (0%) | –
NC12CC3CC(C1)CC(O)(C3)C2 [Compound 38] | – | – | 38 (20%) | –
NOC12CC3CC(CC(C3)C1)C2 [Compound 42, O-adamantylhydroxylamine] | – | – | 42 (15%) | –
N=C(N)NC12CC3CC(CC(C3)C1)C2 [Compound 39, 1-(adamantyl)guanidine] | – | – | 39 (0%) | –
O=[N+]([O-])C12CC3CC(CC(C3)C1)C2 [Compound 54, 1-nitroadamantane] | – | – | 54 (24%) | –
NC12CC3CC(CC(C3)C1)C2 [Amantadine, reference compound] | – | – | – | S31N % of inhibition by 100 μM for 2 min (AM2 (S31N)): 34.7 ± 1.6%

SMILES | AM2 (V27A) % inhibition at μM (AM2 (V27A)) [%] | AM2 (S31N) % inhibition at μM (AM2 (S31N)) [%] | AM2 (S31N) % inhibition at 100 uM (AM2 (S31N)) | other results
O=[N+]([O-])C12CC3CC(CC(C3)C1)C2 [Compound S9] | 19.9 | 24.0 | – | –
CC1(O)C2CC3CC(C2)CC1C3 (centres unmarked) [Compound S4] | 10.9 | 10.6 | – | –
O=[N+]([O-])C1C2CC3CC(C2)CC1C3 (centres unmarked) [Compound S3] | 7.4 | 12.4 | – | –
Cl.Cl.N=C(N)NC(=N)NC12CC3CC(CC(C3)C1)C2 [Compound 41] | – | – | 41 (0%) | –
N=C(NO)C12CC3CC(CC(C3)C1)C2 [Compound 46, N-hydroxyadamantanecarboximidamide] | – | – | 46 (0%) | –
Cl.NC1C[C@@H]2C[C@@H]3CC1[C@H](C2)C3 (stereo partly drawn) [Compound S1, (2S,3aS,5R)-octahydro-1H-2,5-methanoinden-7-aminium chloride] | 25.5 | – | – | –
CC(N)C12CC3CC(CC(C3)C1)C2 (centres unmarked) [Rimantadine, reference compound] | – | – | – | S31N % of inhibition by 100 μM for 2 min (AM2 (S31N)): 13.3 ± 1.8%
Cl.NC12CCC3CC(CC(C3)C1)C2 [Compound S12] | 13.3 | 32.8 | – | –
OC1(C(F)(F)F)C2CC3CC(C2)CC1C3 (centres unmarked) [Compound S8] | 10.6 | 14.0 | – | –
N=C(N)C12CC3CC(CC(C3)C1)C2 [Compound 44, Adamantane amidine hydrochloride] | – | – | 44 (31.5%) | –
NC1CSC2(SC1)C1CC3CC(C1)CC2C3 (centres unmarked) [Compound 45] | – | – | 45 (0%) | –
O=CC12CC3CC(CC(C3)C1)C2 [Compound 49, 1-adamantanecarboaldehyde] | – | – | 49 (11%) | –
Cl.NC1C2CC3CC(C2)CC1C3 (centres unmarked) [Compound S14] | 0 | 18.2 | – | –
O=C1C2CC3CC(C2)CC1C3 [Compound 50] | – | – | 50 (0%) | –
OC1(C(F)(F)F)C2CC3CC(C2)CC1C3 (centres unmarked) [Compound 53, 2-trifluoromethyl-2-adamantol] | – | – | 53 (14%) | –
